Several values for one entry are separate records, joined by “and”; a condition that tells them apart may be missing. Identical values can stand only once. Activity calls are given as the source filed them. Some results are limits rather than exact numbers.

Broadly, the IC50 is the concentration at which inhibition is half-maximal. By EC50 is commonly meant the concentration at which the effect is half-maximal.

The target of test [1] is T1, Rac GTPase-activating protein 1 (Homo sapiens, UniProt Q9H0H5).
T1 sequence (Q9H0H5 whole entry): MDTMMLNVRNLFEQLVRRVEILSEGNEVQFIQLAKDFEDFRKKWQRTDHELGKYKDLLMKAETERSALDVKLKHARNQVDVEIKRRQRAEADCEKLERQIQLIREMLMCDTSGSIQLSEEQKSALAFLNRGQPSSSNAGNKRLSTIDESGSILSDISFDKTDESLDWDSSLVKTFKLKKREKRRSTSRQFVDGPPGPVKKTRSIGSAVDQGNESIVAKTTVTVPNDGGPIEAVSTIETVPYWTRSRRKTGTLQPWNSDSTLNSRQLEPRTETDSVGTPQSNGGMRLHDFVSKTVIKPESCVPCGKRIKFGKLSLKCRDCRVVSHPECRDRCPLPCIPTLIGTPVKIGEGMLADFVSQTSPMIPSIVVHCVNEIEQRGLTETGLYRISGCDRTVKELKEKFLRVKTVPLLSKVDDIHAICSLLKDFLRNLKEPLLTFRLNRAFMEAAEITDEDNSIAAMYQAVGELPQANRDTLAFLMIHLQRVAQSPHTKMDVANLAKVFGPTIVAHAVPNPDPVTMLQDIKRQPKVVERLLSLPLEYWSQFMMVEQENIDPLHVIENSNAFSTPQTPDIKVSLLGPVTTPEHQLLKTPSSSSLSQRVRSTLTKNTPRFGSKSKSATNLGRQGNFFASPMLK
Nature of the test: blockers of MgcRacGAP-driven Rac1 GTP hydrolysis – biochemical, ADP Hunter fluorescence, primary and confirmatory, confirmation (AID 624330). Format: functional.

In test [2] the target is Serine/threonine-protein phosphatase PP1-alpha catalytic subunit (Homo sapiens, UniProt P62136). Nature of the test: inhibition of protein phosphatase 1 activity – biochemical, fluorescence, dose response (AID 2394).
Test [3] addresses T2, Sentrin-specific protease 7 (Homo sapiens, UniProt Q9BQF6).
T2 sequence (Q9BQF6 whole entry): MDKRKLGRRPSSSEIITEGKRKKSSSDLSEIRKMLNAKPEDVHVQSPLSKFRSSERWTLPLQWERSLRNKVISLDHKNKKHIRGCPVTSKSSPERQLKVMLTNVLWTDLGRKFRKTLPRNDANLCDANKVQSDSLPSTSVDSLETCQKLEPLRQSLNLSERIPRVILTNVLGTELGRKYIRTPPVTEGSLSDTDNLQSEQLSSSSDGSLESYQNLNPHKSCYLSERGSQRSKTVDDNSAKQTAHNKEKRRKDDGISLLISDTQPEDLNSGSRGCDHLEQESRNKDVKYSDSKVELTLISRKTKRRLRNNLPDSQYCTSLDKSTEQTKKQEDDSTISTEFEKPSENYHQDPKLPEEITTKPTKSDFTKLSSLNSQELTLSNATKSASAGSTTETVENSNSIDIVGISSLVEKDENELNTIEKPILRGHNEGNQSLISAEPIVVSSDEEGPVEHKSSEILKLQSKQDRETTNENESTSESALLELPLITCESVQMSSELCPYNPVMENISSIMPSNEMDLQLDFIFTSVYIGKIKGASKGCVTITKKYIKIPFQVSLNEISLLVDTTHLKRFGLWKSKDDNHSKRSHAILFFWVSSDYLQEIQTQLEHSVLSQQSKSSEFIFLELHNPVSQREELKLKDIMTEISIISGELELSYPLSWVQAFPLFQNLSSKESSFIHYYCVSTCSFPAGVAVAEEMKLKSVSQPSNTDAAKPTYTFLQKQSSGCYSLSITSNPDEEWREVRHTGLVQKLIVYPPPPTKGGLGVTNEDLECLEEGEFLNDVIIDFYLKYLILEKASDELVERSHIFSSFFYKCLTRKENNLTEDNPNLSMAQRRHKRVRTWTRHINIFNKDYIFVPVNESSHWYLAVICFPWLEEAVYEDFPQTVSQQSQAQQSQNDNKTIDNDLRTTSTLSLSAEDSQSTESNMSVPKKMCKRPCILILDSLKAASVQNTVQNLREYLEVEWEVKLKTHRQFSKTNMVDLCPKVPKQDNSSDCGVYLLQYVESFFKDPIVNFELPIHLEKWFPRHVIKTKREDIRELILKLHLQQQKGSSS
Format: functional.

In test [4] the target is Ras and Rab interactor 1/Tyrosine-protein kinase ABL1 (Homo sapiens, UniProt P00519+Q13671). Format: functional.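 Note: biochemical TR-FRET dose-response test measuring inhibition of binding between Rin1 and Abl proteins.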
Test [5] concerns the target Voltage-gated N-type calcium channel alpha-1B subunit/Amyloid beta A4 precursor protein-binding family A member 1 (Homo sapiens, UniProt Q00975+Q02410). It is filed as protein assay.
Test [6] can be described thus: viability of PTEN-deleted HCT116 cells – cell-based, HCT116 PTEN knockout, dose response (AID 1047).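 Note: HCT116 colon tumor cells with PTEN knocked out; cells exposed to compound for 60 hours before readout; potency for loss of cell viability measured by luminescence.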 Format: functional.
In test [7] the target is T3, RNA-binding protein pos-1 (Caenorhabditis elegans, UniProt G5EF15).
T3 sequence (G5EF15 whole entry): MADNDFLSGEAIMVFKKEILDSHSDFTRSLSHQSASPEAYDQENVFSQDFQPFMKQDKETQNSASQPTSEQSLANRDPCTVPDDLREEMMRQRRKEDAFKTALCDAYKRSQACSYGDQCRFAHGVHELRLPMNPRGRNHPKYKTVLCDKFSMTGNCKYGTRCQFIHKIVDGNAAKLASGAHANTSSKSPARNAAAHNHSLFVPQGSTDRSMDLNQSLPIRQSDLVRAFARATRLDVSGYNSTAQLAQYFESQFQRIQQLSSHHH
The test can be described thus: disruptors of C. elegans POS-1 RNA interaction – biochemical, fluorescence polarization, dose response (AID 1964).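 Note: purified POS-1 fused to maltose binding protein made in E. coli; potency of compounds blocking POS-1 binding to fluorescent RNA.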 On the technique in general: Polarisation of emitted light reports the rotation of a fluorescent probe.

Test [8] is described as follows: Trypanosoma cruzi growth suppression in host cells – NIH3T3 host cells, beta-gal luminescence, confirmation (AID 2044).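 Note: intracellular parasites grown in NIH/3T3 mouse fibroblasts as host cells; luminescent beta-galactosidase reporter signal from transgenic T. cruzi replicating inside host cells; inhibitors lower the luminescence signal.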 Format: functional, cell-based.
Test [9] has as its target T4, Calpain-2 catalytic subunit (Sus scrofa, UniProt P43367).
T4 sequence (P43367 whole entry): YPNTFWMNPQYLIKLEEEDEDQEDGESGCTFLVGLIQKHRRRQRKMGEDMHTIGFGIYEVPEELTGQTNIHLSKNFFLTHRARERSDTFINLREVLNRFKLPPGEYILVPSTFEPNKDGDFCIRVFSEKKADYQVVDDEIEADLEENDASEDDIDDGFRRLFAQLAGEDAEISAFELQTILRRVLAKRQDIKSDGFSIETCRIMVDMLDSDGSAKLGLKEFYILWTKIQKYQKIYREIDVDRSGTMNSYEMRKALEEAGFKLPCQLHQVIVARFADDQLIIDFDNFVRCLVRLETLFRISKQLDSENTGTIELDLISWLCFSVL
Nature of the test: m-calpain protease blockers, concentration series – biochemical, fluorogenic peptide substrate, dose response (AID 1420). It is filed as functional.

Chain of Serine/threonine-protein phosphatase PP1-alpha catalytic subunit (P62136 whole entry): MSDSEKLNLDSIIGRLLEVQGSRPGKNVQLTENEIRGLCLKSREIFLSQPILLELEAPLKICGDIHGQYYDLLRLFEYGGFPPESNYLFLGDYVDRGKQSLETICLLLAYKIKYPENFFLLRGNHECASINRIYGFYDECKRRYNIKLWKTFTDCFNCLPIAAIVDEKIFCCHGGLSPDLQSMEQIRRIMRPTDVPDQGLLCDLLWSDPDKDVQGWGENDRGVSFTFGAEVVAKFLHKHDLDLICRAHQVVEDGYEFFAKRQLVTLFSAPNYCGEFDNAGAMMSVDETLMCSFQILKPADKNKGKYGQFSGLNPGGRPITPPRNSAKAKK
Chain of Voltage-gated N-type calcium channel alpha-1B subunit/Amyloid beta A4 precursor protein-binding family A member 1 (Q00975 whole entry): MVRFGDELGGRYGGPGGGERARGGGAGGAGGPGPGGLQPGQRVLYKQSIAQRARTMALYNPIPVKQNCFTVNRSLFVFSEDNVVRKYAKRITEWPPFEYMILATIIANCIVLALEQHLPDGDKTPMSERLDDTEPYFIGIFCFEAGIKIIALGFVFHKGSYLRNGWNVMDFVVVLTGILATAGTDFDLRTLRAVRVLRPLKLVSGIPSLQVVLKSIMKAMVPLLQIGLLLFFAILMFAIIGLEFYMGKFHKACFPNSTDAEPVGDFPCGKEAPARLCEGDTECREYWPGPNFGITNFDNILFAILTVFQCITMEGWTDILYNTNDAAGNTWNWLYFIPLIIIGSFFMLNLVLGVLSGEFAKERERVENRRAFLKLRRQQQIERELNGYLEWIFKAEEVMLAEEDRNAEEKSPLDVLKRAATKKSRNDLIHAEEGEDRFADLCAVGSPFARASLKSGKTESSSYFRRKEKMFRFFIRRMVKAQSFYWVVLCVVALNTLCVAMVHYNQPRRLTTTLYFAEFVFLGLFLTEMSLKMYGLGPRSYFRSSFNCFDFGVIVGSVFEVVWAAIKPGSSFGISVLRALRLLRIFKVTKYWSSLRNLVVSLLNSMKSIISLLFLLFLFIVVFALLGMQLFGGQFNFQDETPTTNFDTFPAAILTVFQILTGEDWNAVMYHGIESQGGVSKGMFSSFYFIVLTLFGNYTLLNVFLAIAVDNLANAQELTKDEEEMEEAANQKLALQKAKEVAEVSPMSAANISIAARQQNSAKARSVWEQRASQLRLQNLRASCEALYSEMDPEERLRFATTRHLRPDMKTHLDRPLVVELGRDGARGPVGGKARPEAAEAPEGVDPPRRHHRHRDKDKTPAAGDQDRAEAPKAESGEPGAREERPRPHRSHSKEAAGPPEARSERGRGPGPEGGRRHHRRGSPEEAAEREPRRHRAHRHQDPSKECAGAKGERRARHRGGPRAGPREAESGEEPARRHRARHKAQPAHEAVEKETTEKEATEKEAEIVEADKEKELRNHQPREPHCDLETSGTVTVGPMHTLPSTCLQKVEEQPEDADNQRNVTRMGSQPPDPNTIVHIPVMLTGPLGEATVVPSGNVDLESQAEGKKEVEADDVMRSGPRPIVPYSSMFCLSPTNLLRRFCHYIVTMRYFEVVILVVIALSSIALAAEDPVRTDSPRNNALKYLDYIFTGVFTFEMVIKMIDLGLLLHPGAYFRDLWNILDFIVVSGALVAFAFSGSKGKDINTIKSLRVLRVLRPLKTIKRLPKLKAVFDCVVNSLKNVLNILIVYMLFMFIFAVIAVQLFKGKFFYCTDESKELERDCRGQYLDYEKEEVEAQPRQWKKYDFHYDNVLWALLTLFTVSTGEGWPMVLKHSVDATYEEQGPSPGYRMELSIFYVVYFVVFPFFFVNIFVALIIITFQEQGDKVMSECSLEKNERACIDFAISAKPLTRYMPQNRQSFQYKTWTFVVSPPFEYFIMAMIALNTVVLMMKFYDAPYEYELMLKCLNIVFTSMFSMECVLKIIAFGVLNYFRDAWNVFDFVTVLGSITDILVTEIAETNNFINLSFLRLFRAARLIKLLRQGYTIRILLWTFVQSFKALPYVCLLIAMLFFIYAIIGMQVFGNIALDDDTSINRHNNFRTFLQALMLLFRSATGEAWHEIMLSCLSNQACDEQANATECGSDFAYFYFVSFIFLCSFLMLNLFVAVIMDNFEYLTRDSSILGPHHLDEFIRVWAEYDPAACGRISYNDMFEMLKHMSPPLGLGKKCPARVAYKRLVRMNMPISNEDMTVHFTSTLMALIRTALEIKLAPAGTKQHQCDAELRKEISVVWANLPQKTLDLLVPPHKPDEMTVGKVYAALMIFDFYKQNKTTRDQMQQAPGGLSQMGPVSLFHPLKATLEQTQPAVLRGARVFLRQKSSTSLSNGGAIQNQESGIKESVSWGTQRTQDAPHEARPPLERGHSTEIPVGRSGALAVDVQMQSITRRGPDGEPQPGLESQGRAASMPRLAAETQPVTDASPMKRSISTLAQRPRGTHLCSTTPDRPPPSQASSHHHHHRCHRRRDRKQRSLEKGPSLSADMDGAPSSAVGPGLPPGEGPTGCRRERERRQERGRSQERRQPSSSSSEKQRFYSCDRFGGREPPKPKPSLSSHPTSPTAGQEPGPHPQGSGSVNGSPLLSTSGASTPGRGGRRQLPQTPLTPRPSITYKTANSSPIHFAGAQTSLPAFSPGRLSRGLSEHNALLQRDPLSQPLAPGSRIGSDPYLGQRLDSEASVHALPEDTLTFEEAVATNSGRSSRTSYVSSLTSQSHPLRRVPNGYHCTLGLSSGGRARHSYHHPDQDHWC
Chain of Voltage-gated N-type calcium channel alpha-1B subunit/Amyloid beta A4 precursor protein-binding family A member 1 (Q02410 whole entry): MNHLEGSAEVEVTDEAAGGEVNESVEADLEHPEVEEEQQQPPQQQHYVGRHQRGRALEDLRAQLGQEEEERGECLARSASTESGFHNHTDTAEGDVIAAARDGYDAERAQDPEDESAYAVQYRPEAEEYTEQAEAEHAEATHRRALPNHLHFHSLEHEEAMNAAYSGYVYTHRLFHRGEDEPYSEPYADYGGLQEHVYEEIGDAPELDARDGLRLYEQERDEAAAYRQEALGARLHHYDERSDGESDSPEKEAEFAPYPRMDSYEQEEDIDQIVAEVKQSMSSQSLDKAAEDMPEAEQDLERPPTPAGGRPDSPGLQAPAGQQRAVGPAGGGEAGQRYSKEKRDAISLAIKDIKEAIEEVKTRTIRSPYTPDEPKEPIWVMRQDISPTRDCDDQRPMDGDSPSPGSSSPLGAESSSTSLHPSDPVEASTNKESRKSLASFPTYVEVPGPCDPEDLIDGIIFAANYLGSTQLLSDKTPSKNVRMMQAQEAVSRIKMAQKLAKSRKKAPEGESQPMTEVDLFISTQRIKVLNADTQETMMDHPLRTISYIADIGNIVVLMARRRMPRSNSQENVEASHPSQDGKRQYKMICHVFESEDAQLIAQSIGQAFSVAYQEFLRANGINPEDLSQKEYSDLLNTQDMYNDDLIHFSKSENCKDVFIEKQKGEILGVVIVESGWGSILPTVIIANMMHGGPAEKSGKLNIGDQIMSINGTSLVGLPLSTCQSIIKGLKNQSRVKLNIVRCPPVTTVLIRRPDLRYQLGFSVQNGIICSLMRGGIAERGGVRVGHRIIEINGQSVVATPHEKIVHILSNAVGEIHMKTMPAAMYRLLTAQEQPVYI

Take `O=C(Nc1ccccc1Cl)/C(Cl)=C(\Cl)[S+]([O-])c1ccccc1` (stereo not given): the concentration for half-maximal inhibition (IC50) in test [1] is 22.8 µM (active).

For the molecule `O=C(NC1(O)C(=O)c2ccccc2C1=O)c1ccccc1`, the 50% inhibitory concentration (IC50) in test [2] was 49 µM (not active); in [3] it was 2.99 µM (active); in test [4] it was 25.5 µM (inactive).

As to `Cc1cc(C)nc(/N=c2/ssnc2Cl)c1`, in [5], the IC50 was 10.6 µM (active). Also, the EC50 in test [6] was 52.3 µM (active).

As to `CCCCCCCCCCCCCCCCn1cc[n+](C)c1`, the EC50 in [7] was > 300 µM (not active); in test [8] it was < 100 nM (active) and 103 nM (active); in “cells”, 0.44 µM (active). The IC50 in [9] is given as 11.4 µM (not active).

These data come from ChEMBL document CHEMBL1201862, “PubChem BioAssay data set” (2004).
